Test results reported in ChEMBL document CHEMBL5247652, “Discovery of Novel Substrate-Competitive Lysine Methyltransferase G9a Inhibitors as Anticancer Agents” (J Med Chem, 2023).
Converted amounts (≈) assume the structure as drawn.

Columns and labels:
[1] = Aqueous solubility of compound at pH 7.4 measured for 1 hr by UV-plate reader analysis; assay type: physicochemical; settings: buffer
[2] = target: T1, Histone-lysine N-methyltransferase EHMT2 (Homo sapiens, UniProt Q96KQ7); experiment: Inhibition of N-terminal GST-tagged human recombinant G9a (785 to 1210 residues) expressed in baculovirus infected Sf9 cells incubated for 1 hr by AlphaLISA analysis
T1 sequence (Q96KQ7 whole entry): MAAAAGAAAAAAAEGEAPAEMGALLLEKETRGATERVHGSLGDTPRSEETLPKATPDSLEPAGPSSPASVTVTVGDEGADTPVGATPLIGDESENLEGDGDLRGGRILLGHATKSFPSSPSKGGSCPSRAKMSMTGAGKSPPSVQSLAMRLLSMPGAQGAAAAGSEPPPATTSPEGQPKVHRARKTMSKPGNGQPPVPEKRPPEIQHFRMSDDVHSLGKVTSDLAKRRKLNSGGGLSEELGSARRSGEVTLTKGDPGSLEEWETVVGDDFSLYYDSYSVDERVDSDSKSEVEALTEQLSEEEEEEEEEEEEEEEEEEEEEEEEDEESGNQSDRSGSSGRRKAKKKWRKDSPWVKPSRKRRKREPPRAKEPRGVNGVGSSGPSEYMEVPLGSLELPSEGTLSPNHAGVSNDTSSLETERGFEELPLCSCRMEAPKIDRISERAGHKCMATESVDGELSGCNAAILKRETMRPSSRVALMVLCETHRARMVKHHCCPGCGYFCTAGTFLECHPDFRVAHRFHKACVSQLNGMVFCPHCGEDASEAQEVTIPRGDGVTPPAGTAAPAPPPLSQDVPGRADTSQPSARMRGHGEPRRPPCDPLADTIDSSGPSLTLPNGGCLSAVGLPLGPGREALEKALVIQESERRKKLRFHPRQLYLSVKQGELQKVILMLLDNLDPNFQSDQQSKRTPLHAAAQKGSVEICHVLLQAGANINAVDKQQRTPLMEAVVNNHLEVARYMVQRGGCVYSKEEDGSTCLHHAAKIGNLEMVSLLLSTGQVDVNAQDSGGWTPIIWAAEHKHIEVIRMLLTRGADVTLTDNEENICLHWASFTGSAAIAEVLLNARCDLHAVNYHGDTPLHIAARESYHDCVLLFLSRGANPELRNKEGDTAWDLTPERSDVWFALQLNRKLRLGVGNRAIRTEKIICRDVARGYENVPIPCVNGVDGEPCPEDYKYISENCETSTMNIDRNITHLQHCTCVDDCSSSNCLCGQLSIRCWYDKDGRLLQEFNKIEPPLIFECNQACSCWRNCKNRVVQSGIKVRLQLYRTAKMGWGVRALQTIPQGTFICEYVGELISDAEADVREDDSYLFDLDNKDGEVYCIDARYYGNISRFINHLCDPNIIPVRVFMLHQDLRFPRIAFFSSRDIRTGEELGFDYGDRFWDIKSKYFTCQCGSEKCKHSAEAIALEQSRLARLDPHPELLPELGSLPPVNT

[3] = Microsomal stability in human liver microsomes assessed as parent compound remaining after 30 mins in presence of NADPH by LC -MS/MS analysis; assay type: ADME, Microsome; settings: read-out: Stability
[4] = Microsomal stability in mouse liver microsomes assessed as parent compound remaining after 30 mins in presence of NADPH by LC -MS/MS analysis; assay type: ADME, Microsome; settings: read-out: Stability
[5] = Permeability of compound by PAMPA assay; assay type: ADME; settings: read-out: permeability

solubility at 1 h [1] [µM] | IC50 [2] [nM] | remaining at 0.5 h [3] [%] | remaining at 0.5 h [4] [%] | Papp [5] [×10⁻⁶ cm/s] | Compound
4.5 (≈ 2 µg/mL) | 1540 |  |  |  | CCCCC(NC(=O)c1[nH]c2c(c1C)C(=O)CC(C)(C)C2)C(=O)Nc1cccc(Cl)c1 (racemic)
15.5 (≈ 6.74 µg/mL) | 1570 | 40.8 | 5.5 | 7.85 | CCCCC(NC(=O)c1[nH]c2c(c1C)C(=O)CC(C)(C)C2)C(=O)Nc1ccccc1C#N (racemic)
13.9 (≈ 6.17 µg/mL) | 1080 | 30 | 0.1 | 7.16 | CCCCC(NC(=O)c1[nH]c2c(c1C)C(=O)CC(C)(C)C2)C(=O)Nc1ccccc1Cl (racemic)
 | 5320 |  |  |  | CSCCC(NC(=O)c1[nH]c2c(c1C)C(=O)CC(C)(C)C2)c1nc2ccccc2[nH]1 (racemic)
 | > 50000 |  |  |  | CCCCC(NC(=O)c1oc2c(c1C)C(=O)CC(C)(C)C2)C(=O)Nc1ccccc1 (racemic)
62.1 (≈ 25.5 µg/mL) | 4260 | 68.8 | 25.1 | 11.2 | CCCCC(NC(=O)c1[nH]c2c(c1C)C(=O)CC(C)(C)C2)C(=O)Nc1ccccn1 (racemic)
 | 1430 |  |  |  | CSCC[C@H](NC(=O)c1[nH]c2c(c1C)C(=O)CC(C)(C)C2)c1nc2ccccc2[nH]1
43.6 (≈ 21.3 µg/mL) | 2960 |  |  | 1.39 | CCCCC(NC(=O)c1[nH]c2c(c1C)C(=O)CC(C)(C)C2)C(=O)Nc1ccc(S(C)(=O)=O)cc1 (racemic)
 | 4500 |  |  |  | CCCC[C@@H](NC(=O)c1[nH]c2c(c1C)C(=O)CC(C)(C)C2)c1nc2ccccc2[nH]1
 | > 50000 |  |  |  | Cc1c(C(=O)N[C@@H](CCCN(C)C)c2nc3ccccc3[nH]2)[nH]c2c1C(=O)CC(C)(C)C2
7.2 (≈ 3.16 µg/mL) | 802 | 11.8 | 1.7 | 49.4 | CCCCC(NC(=O)c1[nH]c2c(c1C)C(=O)CC(C)(C)C2)C(=O)Nc1ccccc1OC (racemic)
14.5 (≈ 6.3 µg/mL) | 685 | 79.1 | 6.4 | 7.78 | CCCCC(NC(=O)c1[nH]c2c(c1C)C(=O)CC(C)(C)C2)C(=O)Nc1cccc(C#N)c1 (racemic)
 | 1160 |  |  |  | Cc1c(C(=O)NC(CC2CC2)C(=O)Nc2ccccc2)[nH]c2c1C(=O)CC(C)(C)C2 (racemic)
 | 4040 |  |  |  | CCCC(NC(=O)c1[nH]c2c(c1C)C(=O)CC(C)(C)C2)C(=O)Nc1ccccc1 (racemic)
 | > 5000 |  |  |  | Cc1c(C(=O)NC(CCc2ccccc2)C(=O)Nc2ccccc2)[nH]c2c1C(=O)CC(C)(C)C2 (racemic)
 | 291 |  |  |  | Cc1c(C(=O)NC(CCC(C)C)C(=O)Nc2ccccc2)[nH]c2c1C(=O)CC(C)(C)C2 (racemic)
 | 1900 |  |  |  | CCCC[C@H](NC(=O)c1[nH]c2c(c1C)C(=O)CC(C)(C)C2)c1nc2ccccc2[nH]1
143 (≈ 58.7 µg/mL) | 1810 | 32.4 | 44.7 | 6.95 | CCCCC(NC(=O)c1[nH]c2c(c1C)C(=O)CC(C)(C)C2)C(=O)Nc1cccnc1 (racemic)
 | 20900 |  |  |  | CCCCC(NC(=O)c1[nH]c2c(c1C)C(=O)CCC2)C(=O)Nc1ccccc1 (racemic)
 | 27600 |  |  |  | Cc1c(C(=O)NC(CCCCN)C(=O)Nc2ccccc2)[nH]c2c1C(=O)CC(C)(C)C2 (racemic)
 |  |  |  | 19.4 | CC(C)NCC(O)COc1cccc2ccccc12 (stereo not given) [PROPRANOLOL]
 | > 50000 |  |  |  | CCCCC(NC(=O)c1c(C)c2c(n1C)CC(C)(C)CC2=O)C(=O)Nc1ccccc1 (racemic)
12.9 (≈ 5.61 µg/mL) | 446 | 89.5 | 63.9 | 3.68 | CCCCC(NC(=O)c1[nH]c2c(c1C)C(=O)CC(C)(C)C2)C(=O)Nc1ccc(C#N)cc1 (racemic)
16.5 (≈ 7.05 µg/mL) | 909 | 83.8 | 37.5 | 23.5 | CCCCC(NC(=O)c1[nH]c2c(c1C)C(=O)CC(C)(C)C2)C(=O)Nc1ccc(F)cc1 (racemic)
 | 2080 |  |  |  | CCCC[C@H](NC(=O)c1[nH]c2c(c1C)C(=O)CC1(CCOCC1)C2)C(=O)Nc1ccccc1
